Reference: patent EP0666847B1 (priority 1993, dated 1995)
pEC50, pKi: −log10 of the molar value. Structures can show the parent of a compound that is named as a salt.

What was measured:
[1] = target: T1, 5-HT1Dβ receptor (Homo sapiens, UniProt P28222); assay: biochemical; type: binding; details: for 5-HT1Dβ/5HT1A: selectivity ratio, 5-HT1A binding with 3H-8-OH-DPAT, 5-HT1Dβ with 3H-5HT; for pKi: 3H-5HT, membranes of recombinant cells, 15 minute incubation at 37°C
T1 construct: expressed in transfected cells
Experimental: Increasing levels of the test compound were incubated with the radioligand and the membrane homogenates prepared from the recombinant cells. After a 15 minute incubation at 37°C, the incubation was terminated by vacuum filtration. The filters were washed with buffer and the filters were counted for radioactivity using liquid scintillation spectrometry.

[2] = target: T1, 5-HT1Dβ receptor; assay: Inhibition of forskolin-stimulated adenylate cyclase (cAMP radioimmunoassay) in 5-HT1Dβ-presenting CHO cells; type: cell-based
Experimental: CAMP levels were determined using a radioimmunoassay kit containing antibody specific for cAMP and radioiodinated cAMP. The amount of the compound that inhibited 50% of the forskolin-stimulated adenylate cyclase activity was determined from the inhibition curve data subjected to computer assisted analysis (Figure 1).

T1 sequence (P28222 whole entry): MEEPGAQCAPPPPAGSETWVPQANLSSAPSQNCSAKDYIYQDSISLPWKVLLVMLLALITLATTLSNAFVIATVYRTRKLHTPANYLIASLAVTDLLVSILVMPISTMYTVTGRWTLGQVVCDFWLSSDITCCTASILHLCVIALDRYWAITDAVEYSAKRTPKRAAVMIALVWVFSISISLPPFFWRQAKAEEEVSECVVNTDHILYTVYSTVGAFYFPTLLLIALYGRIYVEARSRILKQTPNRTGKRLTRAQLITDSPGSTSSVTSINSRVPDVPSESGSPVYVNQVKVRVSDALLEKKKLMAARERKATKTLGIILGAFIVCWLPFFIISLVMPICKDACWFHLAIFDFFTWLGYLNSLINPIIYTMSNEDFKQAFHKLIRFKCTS

SMILES | 5-HT1Dβ/5HT1A [1] | pKi [1] | pEC50 [2] | inhibition at 0.001 µM ([2]; CHO, read-out: % Inhib. cAMP) [%] | inhibition at 0.01 µM ([2]; CHO, read-out: % Inhib. cAMP) [%] | inhibition at 0.1 µM ([2]; CHO, read-out: % Inhib. cAMP) [%] | inhibition at 1 µM ([2]; CHO, read-out: % Inhib. cAMP) [%]
CCCCCCCCCOc1ccc2[nH]cc(CCN)c2c1 [Example 4, 3-(2-aminoethyl)-5-nonyloxyindole oxalate] | 260 |  |  |  |  |  | 
CCCCOCCCCOc1ccc2[nH]cc(CCN)c2c1 [Example 9, 3-(2-aminoethyl)-5-(4-butyloxybutyloxy)-indole hydrochoride] | 30 | 8.60 |  |  |  |  | 
Cl.NCCc1c[nH]c2ccc(OCCCCCCCCO)cc12 [Example 5, 3-(2-aminoethyl)-5-(8-hydroxyoctyloxy)-indole hydrochloride] | 119 | 9.52 | 6.70 | 0 | 11 | 33 | 92
CCOCCCCCCOc1ccc2[nH]cc(CCN)c2c1 [Example 8, 3-(2-aminoethyl)-5-(6-ethyloxyhexyloxy)-indole hydrochloride] | 180 | 9.40 |  |  |  |  | 
